Measurements reported in publication PMC8944080, “Production of indole by Corynebacterium glutamicum microbial cell factories for flavor and fragrance applications” (Microbial Cell Factories, 2022).

Molecular target: T1, PrTNA (Proteiniclasticum ruminis, UniProt A0A1I5A1Q1)
T1 construct: gene tnaA; full length, untagged, codon-optimised gene in pGold, expressed in C. glutamicum C1*
T1 sequence (A0A1I5A1Q1 1-461): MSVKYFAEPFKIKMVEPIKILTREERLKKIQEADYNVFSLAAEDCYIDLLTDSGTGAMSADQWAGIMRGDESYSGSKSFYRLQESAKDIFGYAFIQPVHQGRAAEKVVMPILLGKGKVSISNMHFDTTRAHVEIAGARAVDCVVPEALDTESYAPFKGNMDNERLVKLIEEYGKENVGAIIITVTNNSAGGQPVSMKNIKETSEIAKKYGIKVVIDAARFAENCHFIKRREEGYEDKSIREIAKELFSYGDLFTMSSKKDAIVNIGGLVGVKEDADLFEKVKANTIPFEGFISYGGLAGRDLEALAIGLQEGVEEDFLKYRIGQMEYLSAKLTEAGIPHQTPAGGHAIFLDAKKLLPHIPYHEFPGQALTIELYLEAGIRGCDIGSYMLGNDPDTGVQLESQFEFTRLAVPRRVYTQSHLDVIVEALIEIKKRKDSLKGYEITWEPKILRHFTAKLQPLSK
Experiment: whole-cell conversion to indole, HPLC
Assay type: cell-based
Settings: C. glutamicum C1* co-expressing aroP, CGXII medium, 1 g L^−1 Trp; empty vector control without aroP

## N[C@@H](Cc1c[nH]c2ccccc12)C(=O)O [L-tryptophan]
  whole-cell conversion to indole, HPLC: Indole production was observed for all six tested TNAs
